Here are results for six compounds from paper PMC8036738, “Evaluation of Selective COX-2 Inhibition and In Silico Study of Kuwanon Derivatives Isolated from Morus alba” (International Journal of Molecular Sciences, 2021).

Like-named read-outs stand apart in the source and are kept apart here.

Holding throughout (format): biochemical, ovine
One test concerns the target T1, COX-1 (Ovis aries, UniProt P05979).
T1 construct: purchased BioVision
T1 sequence (P05979 25-600): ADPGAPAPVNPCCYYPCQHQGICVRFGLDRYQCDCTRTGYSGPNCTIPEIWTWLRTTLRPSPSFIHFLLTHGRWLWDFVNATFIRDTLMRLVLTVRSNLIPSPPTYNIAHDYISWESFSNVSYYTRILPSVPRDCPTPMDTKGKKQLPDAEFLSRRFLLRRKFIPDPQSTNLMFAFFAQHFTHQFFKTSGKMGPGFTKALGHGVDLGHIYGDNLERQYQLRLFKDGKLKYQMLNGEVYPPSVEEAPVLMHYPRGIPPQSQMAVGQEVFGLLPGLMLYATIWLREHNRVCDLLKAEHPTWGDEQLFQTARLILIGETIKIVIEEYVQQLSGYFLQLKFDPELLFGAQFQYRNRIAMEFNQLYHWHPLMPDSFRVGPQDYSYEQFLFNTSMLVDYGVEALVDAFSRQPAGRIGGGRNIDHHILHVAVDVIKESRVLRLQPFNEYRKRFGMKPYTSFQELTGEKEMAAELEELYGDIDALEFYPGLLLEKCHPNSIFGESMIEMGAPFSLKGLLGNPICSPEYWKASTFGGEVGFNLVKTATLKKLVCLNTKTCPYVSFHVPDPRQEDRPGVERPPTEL
The experiment in a line: in vitro COX-1 enzyme inhibition assay (fluorometric inhibitor screening kit). The protocol: (§1) Dimethyl sulfoxide (DMSO) and COX-1/2 Inhibitor Screening Kit (BioVison, California, CA, USA) were used according to the manufacturer’s instructions. All other reagents used were of the highest purity commercially available. All samples were dissolved in DMSO at a concentration of 100 mM.
(§2) The ability of the test compounds to inhibit COX-1 and COX-2 isoenzymes in vitro was determined using a Biovision fluorometric COX-1/-2 inhibitor screening assay kit. Briefly, the COX assay buffer (75 μL), COX cofactor working solution (2 μL), COX probe solution (1 μL), recombinant COX-1 or COX-2 (1 μL), arachidonic acid/NaOH solution (10 μL), and test solution (10 μL) were mixed in a 96-well plate, and the fluorescence kinetics were measured for 10 min at 25 °C. […] Fluorescence was measured using a microplate spectrophotometer (Bio-Tek, Winooski, VT, USA). Two points (T1 and T2) in the linear range of the plot were used to obtain the corresponding fluorescence values (RFU1 and RFU2). Then, the slope for all samples (S) was calculated by dividing the net ΔRFU (RFU2 − RFU1) values by the time ΔT (T2 − T1) using the following equation: Relative inhibition (%) = ((slope of the enzyme control − slope of S)/(slope of the enzyme control)) × 100.
(§3) The samples were evaluated in triplicates at five different concentrations.

Test [1] relates to COX-2. The experiment in a line: in vitro COX-2 enzyme inhibition assay (fluorometric inhibitor screening kit). As for the experimental part:
as §1, §2, §3

Test [2] addresses T2, COX-2 (Homo sapiens, UniProt P35354).
T2 sequence (P35354 18-604): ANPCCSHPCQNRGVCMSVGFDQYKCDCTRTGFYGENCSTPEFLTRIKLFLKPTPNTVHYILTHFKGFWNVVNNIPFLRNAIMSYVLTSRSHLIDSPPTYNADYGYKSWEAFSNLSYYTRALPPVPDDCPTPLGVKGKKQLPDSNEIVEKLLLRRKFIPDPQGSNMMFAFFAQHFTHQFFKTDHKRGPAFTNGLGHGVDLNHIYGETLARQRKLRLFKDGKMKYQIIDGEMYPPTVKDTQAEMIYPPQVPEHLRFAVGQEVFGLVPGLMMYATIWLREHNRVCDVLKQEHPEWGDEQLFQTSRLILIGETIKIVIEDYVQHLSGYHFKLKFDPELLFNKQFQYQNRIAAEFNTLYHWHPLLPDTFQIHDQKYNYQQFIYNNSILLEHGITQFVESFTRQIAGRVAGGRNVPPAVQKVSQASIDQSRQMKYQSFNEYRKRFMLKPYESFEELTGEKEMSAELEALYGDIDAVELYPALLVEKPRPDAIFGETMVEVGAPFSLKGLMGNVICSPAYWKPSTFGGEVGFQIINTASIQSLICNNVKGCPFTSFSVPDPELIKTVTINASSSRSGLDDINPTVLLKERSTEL
The description is as above. As for the experimental part: as §1, §2, §3

Setting [3] is: triplicates at five concentrations, read-out: IC50 COX-1.

As usually defined, the IC50 is the concentration needed to halve the response being measured.

In the case of `CC(C)=CCc1c(-c2ccc(O)c3c2OC(C)(C)C=C3)oc2cc(O)cc(O)c2c1=O` [Kuwanon A, kuwanon A], at COX-1 (setting [3]), the IC50 was above 100 µM. Besides, in the test on COX-2 [1], the “SI (selectivity index, COX-1 IC50/COX-2 IC50)” value is reported as above 7.1. For `CC(C)=CCc1c(-c2ccc3c(c2O)C=CC(C)(C)O3)oc2cc(O)cc(O)c2c1=O` [Kuwanon B, kuwanon B] the same measures were 36 µM and 1.3. For `CC(C)=CCc1c(-c2ccc(O)cc2O)oc2c(CC=C(C)C)c(O)cc(O)c2c1=O` [Kuwanon C, kuwanon C], on COX-1, the IC50 amounted to 67 µM. As to `CC(C)=CCC/C(C)=C/Cc1cc(C2CC(=O)c3c(O)cc(O)cc3O2)c(O)cc1O` (stereo not shown) [Kuwanon E, kuwanon E], the IC50 on COX-1 (setting [3]) is 46 µM. Also, in the test with COX-2 [1], the “SI (selectivity index, COX-1 IC50/COX-2 IC50)” value was 1.4. For the compound `CC(C)=CCc1c(-c2ccc(O)cc2O)oc2c(C3C=C(C)CC(c4ccc(O)cc4O)C3C(=O)c3ccc(O)cc3O)c(O)cc(O)c2c1=O` (stereo not shown) [Kuwanon G, kuwanon G], the IC50 at COX-1 (setting [3]) was above 100 µM. In addition, the “COX-2 inhibition activity (in words)” value at COX-2 [2] is “no COX-2 inhibition activity”. For `CC(C)=CCc1c(O)ccc(C(=O)C2C(c3c(O)cc(O)c4c(=O)c(CC=C(C)C)c(-c5ccc(O)cc5O)oc34)C=C(C)CC2c2ccc(O)cc2O)c1O` (stereo not shown) [Kuwanon H, kuwanon H], the IC50 at COX-1 (setting [3]) is 37 µM.
